We go through ten compounds from ChEMBL document CHEMBL3822454, “On the vasoprotective mechanisms underlying novel β-phosphorylated nitrones: Focus on free radical characterization, scavenging and NO-donation in a biological model of oxidative stress” (Eur J Med Chem, 2016).

Data set [1] can be described thus: Induction of nitric oxide release in water using Fe2+-MGD2 as nitric oxide trap at pH 6.56 incubated in ambient light for 4.5 hrs by EPR spectroscopy. The settings on record: buffer, pH 6.56, 4.5 h. Format: physicochemical.
Data set [2] in a line: Induction of nitric oxide release in water using Fe2+-MGD2 as nitric oxide trap at pH 6.56 measured 70 mins post UV-photolysis in dark condition by EPR spectroscopy. It is filed as physicochemical. The settings on record: buffer, pH 6.56, 70 min.
The subject of data set [3] is A549. The data set is described as follows: Cytotoxicity against human A549 cells assessed as reduction in cell viability measured after 48 hrs by luminescence-based ATP assay. The settings on record: A549, 48 h.
Data set [4] has as its system Aorta. In words: Protection against NADPH-induced superoxide-mediated tissue damage in Sprague-Dawley rat endothelium-intact aortic rings assessed as methyl radical adduct formation pre-incubated for 30 mins at 200 uM in presence of DTC prior to NADPH addition measured after 60 mins followed by renewal of media with NADPH-compound mixture measured after 20 mins in presence of DPI by EPR spectroscopy. It is filed as functional.

The test system of data set [5] is A549. In words: Cytotoxicity against human A549 cells assessed as reduction in cell viability measured after 48 hrs by MTT assay. The following applies: A549, 48 h. It is filed as cell-based. For orientation: Tetrazolium assays rely on reduction of a dye to a coloured formazan, in cell work by metabolically active cells.
For data set [6], the system named is Aorta. The data set is described as follows: Protection against superoxide-mediated tissue damage in Sprague-Dawley rat endothelium-intact aortic rings assessed as methyl radical adduct formation preincubated for 30 mins at 200 uM in presence of DTC measured after 4 days by EPR spectroscopy. It is filed as functional.
Data set [7] is described as follows: Antioxidant activity assessed as DPPH scavenging activity measured after 3 mins by spectrophotometric method. It is filed as physicochemical. A general note: DPPH is a stable violet radical that fades when it is reduced.
The subject of data set [8] is A549. In words: Cytotoxicity against human A549 cells assessed as reduction in cell viability measured after 48 hrs by FMCA assay. Format: cell-based. The following applies: A549, 48 h.
A short description of data set [9]: Antioxidant activity assessed as inhibition of […]-xanthine oxidase system-mediated superoxide formation measured over 7 mins by lucigenin-based chemiluminescence analysis. It is filed as physicochemical.
The test system of data set [10] is Aorta. In words: Potentiation of SNP-induced vasorelaxant activity in Sprague-Dawley rat endothelium-intact aortic rings assessed as reduction in L-phenylephrine hydrochloride-induced contraction at 200 uM relative to SNP. It is filed as functional.
A short description of data set [11]: Antioxidant activity assessed as AAPH free radical scavenging activity measured as trolox equivalent by TRAP assay. Format: physicochemical.
Data set [12] has as its system Aorta. The data set is described as follows: Toxicity in Sprague-Dawley rat endothelium-intact aortic rings at 15 mM measured after 20 mins. The following applies: 15000 µM.
A short description of data set [13]: Cytotoxicity against BAEC assessed as decrease in total intracellular LDH content at 15 mM measured after 1 hr by LDH assay relative to vehicle-treated control. Format: cell-based, Bos taurus. Details: scale not given: the % may be the effect or the level left. The following applies: cattle, 15000 µM.
In data set [14] the test system is Aorta. In words: Protection against NADPH-induced superoxide-mediated tissue damage in Sprague-Dawley rat endothelium-intact aortic rings assessed as decomposition of methyl radical adduct preincubated for 30 mins at 200 uM in presence of DTC prior to NADPH addition after 60 mins followed by renewal of media with NADPH-compound mixture measured after 4 days by EPR spectroscopy relative to control. It is filed as functional.

Data set [15] concerns Aorta. In words: Protection against NADPH-induced superoxide-mediated tissue damage in Sprague-Dawley rat endothelium-intact aortic rings assessed as inhibition of protein carbonyl formation at 200 uM pre-incubated for 30 mins in presence of DTC prior to NADPH addition measured after 60 mins using 7-hydrazino-4-nitrobenzo-2,1,3-oxadiazole by fluorimetric analysis. It is filed as functional.

Data set [16] concerns the target Xanthine dehydrogenase/oxidase (Homo sapiens, UniProt P47989). The data set is described as follows: Inhibition of xanthine oxidase (unknown origin) using xanthine as substrate assessed as inhibition of uric acid formation at 1 to 100 uM after 30 mins by spectrophotometric method. The settings on record: 0.5 h.
Data set [17] concerns Aorta. In words: Vasoprotective activity against oxidative stress-induced impairment of ACh-stimulated vasorelaxation in Sprague-Dawley rat endothelium-intact aortic rings assessed as reduction in L-phenylephrine hydrochloride-induced contraction preincubated for 10 to 20 mins in presence of xanthine-xanthine oxidase system prior to L-phenylephrine hydrochloride addition. Format: functional.

The test system of data set [18] is Aorta. In words: Vasoprotective activity against oxidative stress-induced impairment of ACh-stimulated vasorelaxation in Sprague-Dawley rat endothelium-intact aortic rings assessed as reduction in L-phenylephrine hydrochloride-induced contraction preincubated for 10 to 20 mins in presence of xanthine-xanthine oxidase system at 200 uM prior to L-phenylephrine hydrochloride addition relative to ACh. It is filed as functional.

Data set [19] can be described thus: Cytotoxicity against BAECs assessed as decrease in total intracellular LDH content at 15 mM measured after 3 hrs by LDH assay relative to vehicle control. Format: cell-based, Bos taurus. Also noted: scale not given: the % may be the effect or the level left. The settings on record: cattle, baec, 15000 µM.
Data set [20] is described as follows: Cytotoxicity against BAEC assessed as reduction in cell viability measured after 24 hrs by MTT assay. Also noted: species or system Bos taurus. The following applies: cattle.
Data set [21] deals with A549. The data set is described as follows: Cytotoxicity against human A549 cells assessed as reduction in cell viability measured after 24 hrs by MTT assay. It is filed as cell-based. The settings on record: a549, 24 h.
The nature of data set [22]: Cytotoxicity against BAECs assessed as reduction in cell viability measured after 24 hrs by neutral red assay. The settings on record: Bos taurus, BAEC.
The nature of data set [23]: Half life of the compound in phosphate buffer at pH 6 by UV-illumination. Format: ADME.

Calls of active or inactive are those of the source. The rule behind the calls is not given here.

Xanthine dehydrogenase/oxidase, sequence (P47989 whole entry): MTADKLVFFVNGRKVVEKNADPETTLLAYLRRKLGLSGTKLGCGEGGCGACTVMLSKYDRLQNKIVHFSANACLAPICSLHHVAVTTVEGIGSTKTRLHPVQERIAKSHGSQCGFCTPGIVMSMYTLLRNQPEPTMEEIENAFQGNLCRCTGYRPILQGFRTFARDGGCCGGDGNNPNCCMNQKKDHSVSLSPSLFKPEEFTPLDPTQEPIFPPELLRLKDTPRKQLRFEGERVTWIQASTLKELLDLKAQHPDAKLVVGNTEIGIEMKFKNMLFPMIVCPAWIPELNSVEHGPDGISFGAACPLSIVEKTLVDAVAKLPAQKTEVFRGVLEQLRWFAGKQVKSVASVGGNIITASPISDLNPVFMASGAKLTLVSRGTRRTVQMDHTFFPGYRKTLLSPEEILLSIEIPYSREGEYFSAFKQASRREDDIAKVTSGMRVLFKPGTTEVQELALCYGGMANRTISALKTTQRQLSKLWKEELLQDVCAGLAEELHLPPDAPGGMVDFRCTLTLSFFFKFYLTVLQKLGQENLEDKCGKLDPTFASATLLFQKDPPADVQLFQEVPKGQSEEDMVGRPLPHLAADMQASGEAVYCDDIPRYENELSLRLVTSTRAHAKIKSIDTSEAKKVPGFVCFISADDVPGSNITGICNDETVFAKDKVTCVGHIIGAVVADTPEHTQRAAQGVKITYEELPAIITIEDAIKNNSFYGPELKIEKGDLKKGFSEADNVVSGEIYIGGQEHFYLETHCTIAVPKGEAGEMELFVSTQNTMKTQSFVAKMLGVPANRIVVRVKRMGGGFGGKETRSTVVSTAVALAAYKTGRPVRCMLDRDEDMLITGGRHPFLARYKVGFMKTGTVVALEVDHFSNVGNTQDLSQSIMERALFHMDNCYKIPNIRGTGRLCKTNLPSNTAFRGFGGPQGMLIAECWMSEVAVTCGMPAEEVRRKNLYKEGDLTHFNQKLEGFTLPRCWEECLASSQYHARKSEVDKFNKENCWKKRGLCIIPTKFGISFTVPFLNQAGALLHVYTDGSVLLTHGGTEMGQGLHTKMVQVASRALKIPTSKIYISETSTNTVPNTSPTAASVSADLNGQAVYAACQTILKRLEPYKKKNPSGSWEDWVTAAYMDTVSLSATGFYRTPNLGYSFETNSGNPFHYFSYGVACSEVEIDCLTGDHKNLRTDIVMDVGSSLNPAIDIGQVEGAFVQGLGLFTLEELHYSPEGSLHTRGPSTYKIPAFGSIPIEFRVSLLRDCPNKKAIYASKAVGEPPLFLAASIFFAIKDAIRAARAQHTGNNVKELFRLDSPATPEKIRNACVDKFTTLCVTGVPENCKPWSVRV

As to `CCOP(=O)(OCC)C(C)(C)/[N+]([O-])=C/c1ccc(Cl)cc1`, the result in [1] and in data set [2] was Active.
Take `CCOP(=O)(OCC)C(C)(C)/[N+]([O-])=C/c1cc(OC)c(O)c(OC)c1`: the IC50 in the data set on A549 [3] came out at 14.8 mM; in the data set on A549 [5], 15.3 mM; in the data set with A549 [8], 12 mM; in [9] it was 0.0721 mM. The outcome with Aorta [4] and with Aorta [6] was inactive. In addition, the values for the EC50 (in data set [7]; in the data set with Aorta [17]) were 0.19 mM and 67.6 nM, respectively. Moreover, the Rmax with Aorta [10] came to 101%; in the data set with Aorta [18], 77%. Moreover, the Activity in [11] is 1.44 equiv; with Aorta [12], “Non-toxic”; in [13] it was less than 10%; in the data set on Aorta [14], less than 5%; in [19], 8%. Besides, the inhibition result with Aorta [15] is “Active”. The “inhibition (INH)” value in [16] is “Not Active”. Further, the values for the IC10 (in [20]; in the data set with A549 [21]) were 2.6 mM and 6.1 mM, respectively.
Consider `CCOP(=O)(OCC)C(C)(C)/[N+]([O-])=C/c1ccccc1[N+](=O)[O-]`, for which the IC50 in the data set with A549 [3] worked out at 1.4 mM; with A549 [5] it was 1.3 mM; with A549 [8] it was 2.2 mM; in data set [9], 0.03 mM. Besides, the EC50 in data set [7] is greater than 1 mM. In addition, in the data set on Aorta [10], the Rmax is 100%. The Activity in data set [11] is listed as 0.02 equiv; with Aorta [12], “Non-toxic”; in data set [13], less than 10%; in data set [19], 54%; in [2] it was “Active”. Further, the “inhibition (INH)” value in data set [16] is listed as “Not Active”. Also, the IC10 in [20] was less than 0.1 mM.
As to `CCOP(=O)(OCC)C(C)(C)/[N+]([O-])=C/c1ccccc1`, the half-inhibitory concentration (IC50) in the data set on A549 [3] amounted to 10.8 mM; in the data set with A549 [5], 12.4 mM; with A549 [8], 12.6 mM; in data set [9] it was 0.375 mM. The EC50 was greater than 1 mM in [7] and 148 nM in the data set on Aorta [17]. Also, the Rmax is listed as 100% with Aorta [10] and 75% with Aorta [18]. The figures for the Activity (in [11]; with Aorta [14]; in [19]) were 0.02 equiv, 30% and 19%, respectively. The inhibition entry with Aorta [15] was “Active”. The results for the IC10 (in data set [20]; in the data set on A549 [21]) were 1.1 mM and 4.9 mM, respectively.
Take `CC(C)(C)/[N+]([O-])=C/c1ccccc1`: the IC50 in the data set with A549 [3] was 9.6 mM; in the data set with A549 [5], 10.8 mM; in the data set on A549 [8] it was 11.4 mM; in [9] it was greater than 4 mM; in data set [22], 9.4 mM. The figures for the EC50 (in data set [7]; in the data set with Aorta [17]) were greater than 1 mM and 174 nM, respectively. The Rmax is listed as 98% in the data set with Aorta [10] and 62% in the data set with Aorta [18]. Besides, the Activity in [11] was 0.02 equiv; in the data set on Aorta [14], 25%; in data set [19], 10%; in data set [2], “Not Active”. In addition, in the data set on Aorta [15], the inhibition result is “inactive”. The results for the IC10 (in data set [20]; in the data set on A549 [21]) were 2.4 mM and 5.1 mM, respectively.
In the case of `CCOP(=O)(OCC)C(C)(C)/[N+]([O-])=C/c1cc(O)c(O)c(O)c1`, the IC50 amounted to 0.6 mM with A549 [3], 0.7 mM with A549 [5], 0.6 mM in the data set on A549 [8] and 0.0009 mM in [9]. Besides, the outcome in the data set on Aorta [4] and in the data set on Aorta [6] was inactive. Further, the EC50 in data set [7] is 0.019 mM; in the data set with Aorta [17], 28.2 nM. In addition, the Rmax in the data set with Aorta [10] came to 104%; with Aorta [18] it was 93%. The Activity in data set [11] is 1.46 equiv; with Aorta [12], “Non-toxic”; in [13], less than 10%; in the data set on Aorta [14] it was less than 5%; in data set [19], 29%. Besides, in the data set on Aorta [15], the inhibition entry is “Active”. The “inhibition (INH)” value in data set [16] was “Not Active”. In data set [20], the IC10 is 0.2 mM.
On to `CCOP(=O)(OCC)C(C)(C)/[N+]([O-])=C/c1ccc(O)c(OC)c1`, for which the IC50 in the data set on A549 [3] was found to be 4.3 mM; with A549 [5], 3.9 mM; with A549 [8], 6.4 mM; in data set [9], 0.0286 mM. In addition, the outcome with Aorta [4] and in the data set with Aorta [6] was inactive. Moreover, the EC50 in [7] was 0.254 mM; with Aorta [17], 53.7 nM. Moreover, the Rmax with Aorta [10] is reported as 100%; in the data set with Aorta [18] it was 86%. The Activity was 1.91 equiv in data set [11]; “Non-toxic” in the data set with Aorta [12]; less than 10% in data set [13]; less than 5% in the data set on Aorta [14]; 23% in data set [19]. In the data set with Aorta [15], the inhibition entry is “Active”. Also, the “inhibition (INH)” value in data set [16] is recorded as “Not Active”. In addition, the IC10 in data set [20] is on record as 0.7 mM.
On to `CCOP(=O)(OCC)C(C)(C)/[N+]([O-])=C/c1c(C)cccc1C`, for which the IC50 in the data set on A549 [3] is 5.3 mM; in the data set with A549 [5], 4.4 mM; in the data set with A549 [8] it was 4.7 mM; in data set [9], 0.35 mM. Also, the EC50 in data set [7] is greater than 1 mM. In addition, the Rmax in the data set on Aorta [10] worked out at 105%. Also, the results for the Activity (in [11]; in the data set with Aorta [12]; in [2]) were 0.02 equiv, “Non-toxic” and “Active”, respectively. Moreover, in the data set on Aorta [15], the inhibition result is “Active”. In addition, the “inhibition (INH)” value in [16] is recorded as “Not Active”. Moreover, the IC10 in data set [20] is 0.5 mM.
`CC(C)(C)N([O])C(O)c1ccccc1` (centres undefined): the half-life in data set [23] is 1.5 min.
Regarding `CCOP(=O)(OCC)C(C)(C)/[N+]([O-])=C/c1ccccc1C(F)(F)F`, the IC50 was 2.7 mM with A549 [3], 4.2 mM with A549 [5], 2.2 mM in the data set with A549 [8] and 0.0042 mM in [9]. Moreover, in data set [7], the EC50 was greater than 1 mM. For the same compound, the Rmax in the data set on Aorta [10] turned out to be 104%. For the same compound, the Activity is given as 0.02 equiv in data set [11], “Non-toxic” in the data set with Aorta [12] and “Active” in data set [2]. The “inhibition (INH)” value in data set [16] is reported as “Not Active”. The IC10 in [20] is reported as 0.4 mM.

Broadly, the IC50 is the point on the concentration scale where inhibition reaches its midpoint. As usually defined, the EC50 is the concentration giving half of the maximal effect. One may read the IC10 as the concentration at which the effect reaches the 10% level. By half-life is commonly meant how long it takes for the measured level to halve.
